In BindingDB's records for doi:10.7270/Q2XD103V (Vanderbilt Screening Center for GPCRs, Ion Channels and …, 2010):

Molecular target: T1, Muscarinic acetylcholine receptor M4 (Rattus norvegicus, UniProt P08485)
T1 sequence (P08485 whole entry): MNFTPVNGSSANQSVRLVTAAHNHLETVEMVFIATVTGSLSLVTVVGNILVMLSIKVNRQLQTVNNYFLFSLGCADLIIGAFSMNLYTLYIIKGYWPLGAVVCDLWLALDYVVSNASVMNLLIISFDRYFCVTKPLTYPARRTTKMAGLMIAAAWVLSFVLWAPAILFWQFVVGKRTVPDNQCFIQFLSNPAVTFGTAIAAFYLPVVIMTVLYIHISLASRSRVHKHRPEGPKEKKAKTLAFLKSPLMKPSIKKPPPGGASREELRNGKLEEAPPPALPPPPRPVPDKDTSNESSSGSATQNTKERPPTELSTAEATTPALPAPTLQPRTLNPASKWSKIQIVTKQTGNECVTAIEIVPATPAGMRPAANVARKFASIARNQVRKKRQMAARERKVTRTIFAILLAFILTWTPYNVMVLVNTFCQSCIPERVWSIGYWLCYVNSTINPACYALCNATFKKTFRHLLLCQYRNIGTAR
Experiment: potentiation of rat muscarinic M4 receptor – cell-based, analogs, SAR follow-up (AID 1938)

Row | Structure (SMILES) | EC50
1 | Cc1cc(C)c2c(N)c(C(=O)NCc3ccc4c(c3)OCO4)sc2n1 [3-amino-4,6-dimethyl-N-piperonyl-thieno[2,3-b]pyridine-2-carboxamide] | 0.403 µM
2 | COc1ccc(CNC(=O)c2sc3nc(OCc4ccncc4)cc(C)c3c2N)cc1 [3-amino-4-methyl-N-p-anisyl-6-(4-pyridylmethoxy)thieno[2,3-b]pyridine-2-carboxamide] | 1.96 µM
3 | Cc1cc(OCc2ccncc2)nc2sc(C(=O)NCc3cccc(F)c3F)c(N)c12 [3-amino-N-(2,3-difluorobenzyl)-4-methyl-6-(4-pyridylmethoxy)thieno[2,3-b]pyridine-2-carboxamide] | 1.67 µM
